Results from patent publication US9139585B2 (Merck Sharp & Dohme Corp., priority 2011, dated 2015).
Where two headings read alike, the source gives them in different places.

Experiments:
Kir1.1 (ROMK1) = Kir1.1 (ROMK1) (Homo sapiens (Human), UniProt P48048); experiment: Electrophysiology Assay (whole cell voltage clamp, IonWorks Quattro); format: cell-based; settings: read-out: EP Assay IC50
From the text: Several assays may be used to measure functional inhibition of the ROMK channel by compounds of the instant invention. One assay that can be used is an electrophysiology assay that measures the electrical current that is generated as potassium permeates through the channel.
Block of Kir1.1 (ROMK1) currents was examined by whole cell voltage clamp (Hamill et. al. Pfluegers Archives 391:85-100 (1981)) using the IonWorks® Quattro automated electrophysiology platform (Molecular Devices, Sunnyvale, Calif.). Chinese hamster ovary cells stably expressing Kir1.1 channels were maintained in T-75 flasks in cell culture media in a humidified 10% CO2 incubator at 37° C. Prior to an experiment, Kir1.1 expression was induced by overnight incubation with 1 mM sodium butyrate. On the day of the experiment, cells were dissociated with 2.5 ml of Versene™ (Invitrogen 15040-066) for approximately 6 minutes at 37° C. and suspended in 10 ml of bath solution containing (in mM): 150 NaCl, 10 KCl, 2.7 CaCl2, 0.5 MgCl2, 5 HEPES, pH 7.4. After centrifugation, the cell pellet was resuspended in approximately 4.0 ml of bath solution and placed in the IonWorks® instrument. The intracellular solution consisted of (in mM): 80 K gluconate, 40 KCl, 20 KF, 3.2 MgCl2, 3 EGTA, 5 Hepes, pH 7.4. Electrical access to the cytoplasm was achieved by perforation in 0.13 mg/ml amphotericin B for 4 minutes. Amphotericin B (Sigma A-4888) was prepared as a 40 mg/ml solution in DMSO.
Voltage protocols and current recordings were performed using the IonWorks® HT software/hardware system. Currents were sampled at 1 kHz. No correction for liquid junction potentials was used. The test pulse, consisting of a 100 ms step to 0 mV from a holding potential of −70 mV, followed by a 100 ms voltage ramp from −70 mV to +70 mV, was applied before and after a 6 minutes compound incubation period. Test compounds were prepared by diluting DMSO stock solutions into the bath solution at 3× the final concentration and placed in the instrument in 96-well polypropylene plates. Current amplitudes were measured using the IonWorks® software. To assess compound potency, the fractional block during the voltage step to 0 mV was calculated in Microsoft® Excel (Microsoft, Redmond, Calif.), and dose-response curves were fitted with Igor Pro 4.0 (WaveMetrics, Lake Oswego, Oreg.).

hROMK (hKir1.1) = hROMK (hKir1.1) (Homo sapiens (Human), UniProt P48048); experiment: Thallium Flux Assay (ROMK channel functional thallium flux, FLIPR-Tetra); format: cell-based; settings: HEK293 cells stably expressing hROMK (hKir1.1); read-out: Thallium Flux Assay IC50
Sequence of hROMK (hKir1.1) (P48048 whole entry): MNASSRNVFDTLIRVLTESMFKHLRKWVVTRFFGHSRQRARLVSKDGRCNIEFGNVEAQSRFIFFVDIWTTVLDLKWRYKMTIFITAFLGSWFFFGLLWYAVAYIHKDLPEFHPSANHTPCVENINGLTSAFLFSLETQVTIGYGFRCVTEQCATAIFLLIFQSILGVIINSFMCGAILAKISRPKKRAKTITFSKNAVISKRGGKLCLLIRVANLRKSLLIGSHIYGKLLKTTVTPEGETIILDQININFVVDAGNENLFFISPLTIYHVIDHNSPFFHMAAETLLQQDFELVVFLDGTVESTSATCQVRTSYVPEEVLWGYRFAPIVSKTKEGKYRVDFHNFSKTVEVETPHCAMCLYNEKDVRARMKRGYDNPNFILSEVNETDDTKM
Description: Another ROMK functional assay makes use of the ability of thallium to permeate through open ROMK channels and increase the fluorescence of a dye previously loaded into the cells. Under control conditions, cells loaded with dye and exposed to thallium-containing medium display a time-dependent increase in fluorescence, the rate of which depends on number of functional channels. When cells are incubated in the presence of a channel inhibitor, the increase in fluorescence is attenuated in a concentration-dependent manner, and IC50 values of inhibition by compounds can be accurately determined. This assay has been established with cell lines expressing either human, or rat ROMK channels, and operates in 384-well format.
HEK293 cells stably expressing hROMK (hKir1.1) were grown at 37° C. in a 10% CO2 humidified incubator in complete growth media: Dulbecco's Modified Eagle Medium supplemented with non-essential amino acids, Penicillin/Streptomycin/Glutamine, G418 and FBS. At >80% confluency, the media was aspirated from the flask and the sample was rinsed with 10 ml Calcium/Magnesium-free PBS. […] To dislodge the cell, the side of the flask was gently banged with a hand. The cells were triturated completely and then transferred to 25 ml complete media. The sample was then centrifuged at 1,500 rpm for 6 minutes, followed by resuspension in complete growth media and then cell concentration was determined. […] Under ideal growth conditions and appropriate tissue culture practices, this cell line is stable for 40-45 passages.
FluxOR Kit Components (Invitrogen F10017)
• FluxOR™ Reagent (Component A) • FluxOR™ Assay Buffer (Component B)—10× Concentrate • PowerLoad™ Concentrate (Component C)—100× Concentrate • Probenecid (Component D)—Lyophilized sample is kept at −20° C. Water soluble, 100× after solubilization in 1 ml water. […] Store at 4° C. • Thallium sulfate (Tl2SO4) Concentrate (Component G)—50 mM in water. Store at 4° C. • DMSO (dimethyl sulfoxide, Component H)—1 ml (100%) Reagent Preparation— FluxOR Working Solutions • 1000× FluxOR™ Reagent: Reconstitute a vial of component A in 100 μl DMSO; Mix well; Store 10 μl aliquots at −20° C. • 1× FluxOR™ Assay Buffer: Dilute Component B 10-fold with water; Adjust pH to 7.4 with Hepes/NaOH; Filter and store at 4° C. • Probenecid/Assay Buffer: 100 ml of 1× FluxOR™ Assay Buffer; 1 ml of reconstituted component D; Store at 4° C. • Loading Buffer (per microplate): 10 μl 1000× FluxOR™ Reagent; 100 μl component C; 10 ml Probenecid/Assay Buffer • Compound Buffer (per microplate): 20 ml Probenecid/Assay Buffer; 0.3 mM ouabain (10 mM ouabain in water can be stored in amber bottle/aluminum foil at room temperature);
Test compound • 1× FluxOR™ Chloride-Free Buffer: Prepare 1× working solution in water. Can be stored at room temperature • Stimulant Buffer (prepared at 5× final concentration in 1× FluxOR™ Chloride-Free Buffer): 7.5 mM Thallium sulfate and 0.75 mM Potassium sulfate (to give a final assay concentration of 3 mM Thallium/0.3 mM Potassium). Store at 4° C. when not in use. If kept sterile, this solution is good for months. Assay Protocol—
The ROMK channel functional thallium flux assay is performed in 384 wells, using the FLIPR-Tetra instrument. HEK-hKir1.1 cells are seeded in Poly-D-Lysine microplates and kept in a 37° C.-10% CO2 incubator overnight. On the day of the experiment, the growth media is replaced with the FluxOR™ reagent loading buffer and incubated, protected from light, at ambient temperature (23-25° C.) for 90 min. The loading buffer is replaced with assay buffer±test compound followed by 30 min incubation at ambient temperature, where the Thallium/Potassium stimulant is added to the microplate.
• 1. Seed HEK-hKir1.1 cells (50 μl at 20,000 cells/well) in 384-well PDL coated Microplates • 2. Allow cells to adhere overnight in humidified 37° C./10% CO2 incubator • 3. Completely remove cell growth media from microplate and replace with 25 μl loading buffer • 4.

[1] = Chinese hamster ovary cells stably expressing Kir1.1, block during voltage step to 0 mV

Sequence of Kir1.1 (ROMK1) (P48048 whole entry, species assumed): as the sequence (P48048 whole entry) above

| Structure (SMILES) | IC50 (Kir1.1 (ROMK1)) | IC50 (hROMK (hKir1.1)) | IC50 (Kir1.1 (ROMK1); [1]) |
| --- | --- | --- | --- |
| COc1cc(C(O)CN2C3COCC2CN(C[C@H](O)c2ccc4c(c2C)COC4=O)C3)ncc1C#N (stereo in doubt) [Example 26, (R)-6-(1-Hydroxy-2-(7-(2-hydroxy-2-(4-methyl-1-oxo-1,3-dihydroisobenzofuran-5-yl)ethyl)-3-oxa-7,9 diazabicyclo[3.3.1]nonan-9-yl)ethyl)-4-methoxynicotinonitrile] | 71 nM | 49.2 nM |  |
| Cc1c([C@H](O)CN2CCN(CCc3ccc4c(c3)CCOC4=O)CC2)ccc2c1COC2=O [Example 31, (S)-6-(2-(4-(2-Hydroxy-2-(4-methyl-1-oxo-1,3-dihydroisobenzofuran-5-yl)ethyl)piperazin-1-yl)ethyl)isochroman-1-one] |  | 318 nM | 564 nM |
| Cc1c([C@@H](O)CN2CCN(C[C@H](O)c3ccc4c(c3C)COC4=O)C(C)(C)C2)ccc2c1COC2=O [Example 2, 5,5′-{(2,2-dimethylpiperazine-1,4-diyl)bis[(1R)-1-hydroxyethane-2,1-diyl]}bis(4-methyl-2-benzofuran-1(3H)-one)] |  | 113 nM | 41 nM |
| Cc1c([C@@H](O)CN2C[C@@H]3C[C@H]2CN3S(=O)(=O)c2ccc(C#N)cc2)ccc2c1COC2=O [Example 3, 4-((1S,4S)-5-((R)-2-Hydroxy-2-(4-methyl-1-oxo-1,3-dihydroisobenzofuran-5-yl)ethyl)-2,5-diazabicyclo[2.2.1]heptan-2-ylsulfonyl)benzonitrile] |  | 636 nM | 200 nM |
| COc1cc(C(O)CN2C3CCC2C2CCC3N2C[C@H](O)c2ccc3c(c2C)COC3=O)ncc1C#N (single isomer, unassigned) [Example 9] |  | 23 nM | 23 nM |
| Cc1nc(C(O)CN2C3CCC2C2CCC3N2C[C@H](O)c2ccc3c(c2C)COC3=O)ccc1C#N (stereo partly drawn) [Example 7, 6-(1-Hydroxy-2-{10-[(2R)-2-hydroxy-2-(4-methyl-1-oxo-1,3-dihydro-2-benzofuran-5-yl)ethyl]-9,10-diazatricyclo[4.2.1.1^2,5]dec-9-yl}ethyl)-2-methylpyridine-3-carbonitrile] |  | 115 nM | 45 nM |
| Cc1c([C@@H](O)CN2C3CCC2C2CCC3N2CC(O)c2ccc(C#N)cn2)ccc2c1COC2=O (single isomer, unassigned) [Example 5] |  | 377 nM | 197 nM |
| Cc1cc(-n2cnnn2)ncc1[C@@H](O)CN1CCN(C[C@H](O)c2ccc3c(c2C)COC3=O)CC1 (single isomer, unassigned) [Example 35B] |  | 278 nM | 32.5 nM |
